The text below walks through data of ChEMBL document CHEMBL1156829 (Proc Natl Acad Sci U S A, 2008).

Data set [1] concerns Plasmodium falciparum. As to the kind of experiment: NOVARTIS: Inhibition of Plasmodium falciparum W2 (drug-resistant) proliferation in erythrocyte-based infection assay. It is filed as functional, organism-based. The note with it: Plasmodium falciparum, W2; read-out: EC50.
Data set [2] has as its system Plasmodium falciparum. The experiment in a line: NOVARTIS: Inhibition of Plasmodium falciparum 3D7 (drug-susceptible) proliferation in erythrocyte-based infection assay. It is filed as functional, organism-based. The note with it: Plasmodium falciparum, 3D7.
Data set [3] is described as follows: NOVARTIS: Cytotoxicity against human hepatocellular carcinoma cell line (Huh7). It is filed as toxicity, cell-based, Huh-7. The note with it: Huh7 cells (hepatocellular carcinoma cell line).

By EC50 is commonly meant the concentration needed to bring the measured effect to its halfway point. As a reminder, the CC50 is the concentration giving 50% cytotoxicity. A low value points to harm at low concentration. Regarding `O=C1/C(=C\c2ccccc2)SC(=Nc2ccccc2)N1C1CCCCC1`, the EC50 with Plasmodium falciparum [1] worked out at 545 nM; with Plasmodium falciparum [2], 348 nM. The molecule further came in with a CC50 in data set [3] of more than 100000 nM.
The matching figures for `O=C(COc1ccccc1)NC(c1ccc([N+](=O)[O-])cc1)c1cc(Cl)c2cccnc2c1O` (stereo not drawn): 434 nM, 605 nM and more than 80600 nM.
`Cc1cc(NC(=O)c2ccc(S(=O)(=O)N(Cc3ccccc3)C(C)C)cc2)no1`: the EC50 in the data set with Plasmodium falciparum [1] amounted to 538 nM; in the data set with Plasmodium falciparum [2] it was 2690 nM. The same molecule had a CC50 in data set [3] of more than 100000 nM.
The matching figures for `COc1ccc2c(c1)c(C)cc[n+]2Cc1ccccc1`: 118 nM, 86.2 nM and 20700 nM.
Regarding `O=c1cc[nH]c2cc(N3CCCCCC3)c(F)cc12`, the figures for the EC50 with Plasmodium falciparum [1] and in the data set with Plasmodium falciparum [2] were 497 nM and 1310 nM, respectively. Moreover, the CC50 in data set [3] is more than 92000 nM.
Take `CCc1c(C)c(=N)c2ccccc2n1C`: the EC50 in the data set on Plasmodium falciparum [1] stood at 534 nM; in the data set on Plasmodium falciparum [2], 701 nM. The CC50 in data set [3] is more than 100000 nM.
Regarding `CCCCc1c(C)nc2ccc(Br)cc2c1O`, the EC50 in the data set with Plasmodium falciparum [1] stood at 532 nM; with Plasmodium falciparum [2] it was 1960 nM. In data set [3], this molecule showed a CC50 of more than 100000 nM.
The matching figures for `COCCCNc1nc2cc(OC)c(OC)cc2c2nc(-c3ccccc3)nn12`: 541 nM, 621 nM and more than 100000 nM.
The matching figures for `CN1CCN(Cc2c(O)ccc3c(=O)c(Oc4ccc(C(C)(C)C)cc4)c(C(F)(F)F)oc23)CC1`: 547 nM, 1800 nM and more than 100000 nM.
The matching figures for `CCOc1ccc(NC(=O)c2ccc(F)c(S(=O)(=O)NC3CCCC(C)C3C)c2)cc1` (stereo not drawn): 178 nM, 1040 nM and 32200 nM.
As for `CN(C)c1ccc(C2N(C)c3ccccc3N2C)cc1`, the results for the EC50 with Plasmodium falciparum [1] and in the data set on Plasmodium falciparum [2] were 551 nM and 913 nM, respectively. This molecule also displayed a CC50 in data set [3] of more than 100000 nM.
The matching figures for `Cc1n(C)c2ccccc2[n+]1CC(=O)c1ccccc1`: 547 nM, 114 nM and more than 100000 nM.
For `C=CCSc1nnc2c(n1)[nH]c1ccc(OCC)cc12`, in that order: 549 nM, 5620 nM and more than 100000 nM.
Consider `COc1ccc(CNCCN2CCN(c3ccccc3)C[C@@H]2Cc2ccc(O)cc2)cc1`, for which the EC50 in the data set with Plasmodium falciparum [1] amounted to 54.9 nM; in the data set with Plasmodium falciparum [2], 52.1 nM. Also, the CC50 in data set [3] is more than 10000 nM.
The matching figures for `O=C1CN(C(=O)CCC2CCCCC2)C(c2ccc(F)cc2)c2cc(F)ccc2N1` (stereo not drawn): 365 nM, 566 nM and 64400 nM.
The matching figures for `OC(CNc1cccc2ccccc12)Cn1c2ccc(Cl)cc2c2cc(Cl)ccc21` (stereo not drawn): 306 nM, 403 nM and 54200 nM.
For `CC(C)(C[N+](C)(C)C)C1OC2CCCCC2C2C=CCCC21` (stereo not drawn), in that order: 565 nM, 999 nM and more than 100000 nM.
Consider `O=C(NC1CC1)c1ccc(CSCc2ccccc2Cl)o1`, for which the EC50 in the data set on Plasmodium falciparum [1] was determined as 562 nM; in the data set with Plasmodium falciparum [2], 503 nM. In data set [3], this molecule yielded a CC50 of more than 100000 nM.
`O=C(NCc1c(Cl)cccc1Sc1ccc(Cl)cc1)c1ccc2c(c1)CCO2`: the EC50 in the data set on Plasmodium falciparum [1] is 56.2 nM; in the data set on Plasmodium falciparum [2], 69.1 nM. This molecule displayed a CC50 in data set [3] of more than 10000 nM.
Regarding `O=C(c1ccc([N+](=O)[O-])cc1)c1ccc(Cl)c(Cl)c1`, the EC50 turned out to be 555 nM in the data set with Plasmodium falciparum [1] and 251 nM in the data set with Plasmodium falciparum [2]. Besides, the cytotoxic concentration (CC50) in data set [3] was more than 100000 nM.
The matching figures for `Clc1ccc(Nc2nc(Nc3ccc(Cl)cc3)c3ccccc3n2)cc1`: 110 nM, 148 nM and 19600 nM.
`CN1C=CC(=Cc2sc3ccccc3[n+]2C)C=C1`: the EC50 in the data set on Plasmodium falciparum [1] is 558 nM; in the data set on Plasmodium falciparum [2], 208 nM. Also, the CC50 in data set [3] is more than 100000 nM.
For `CCn1c(=NC(=O)c2cc(=O)c3ccccc3o2)sc2c(OC)ccc(OC)c21`, in that order: 55.6 nM, 1500 nM and more than 10000 nM.
Consider `CCOc1cc(Br)cc(C=C2NC(=S)NC2=O)c1O`, for which the EC50 was 554 nM in the data set with Plasmodium falciparum [1] and more than 3680 nM in the data set with Plasmodium falciparum [2]. In data set [3], this molecule had a cytotoxic concentration (CC50) of more than 100000 nM.
As for `Cc1ccn2c(NC(C)(C)CC(C)(C)C)c(-c3ccccc3OC(=O)C3C[C@H]3c3ccccc3)nc2c1` (stereo partly drawn), the values for the EC50 with Plasmodium falciparum [1] and in the data set with Plasmodium falciparum [2] were 55.3 nM and 727 nM, respectively. The molecule also showed a CC50 in data set [3] of more than 10000 nM.
For `CCc1nc2nc(C)cc(Nc3ccc(F)c(Cl)c3)n2n1`, the EC50 with Plasmodium falciparum [1] worked out at 547 nM; with Plasmodium falciparum [2], 543 nM. In data set [3], this molecule gave a CC50 of more than 100000 nM.
In the case of `COc1ccc(C(NC(=O)c2cccnc2)c2cc(Cl)c3cccnc3c2O)cc1` (stereo not drawn), the figures for the 50% effective concentration (EC50) with Plasmodium falciparum [1] and in the data set on Plasmodium falciparum [2] were 528 nM and 945 nM, respectively. In data set [3], this molecule showed a CC50 of more than 100000 nM.
For `Oc1ccccc1C=Nc1ccccc1[Te]c1ccccc1N=Cc1ccccc1O`, in that order: 3.14 nM, 3.49 nM and 552 nM.
For `Cc1ccc2c(C)nc(Nc3nc(C)cc(-c4ccccc4)n3)nc2c1`, in that order: 569 nM, 975 nM and more than 100000 nM.
Regarding `Cc1cccc(NC(c2ccccc2F)c2ccc3cccnc3c2O)n1` (stereo not drawn), the EC50 in the data set on Plasmodium falciparum [1] came to 331 nM; in the data set with Plasmodium falciparum [2] it was 2940 nM. The 50% cytotoxic concentration (CC50) in data set [3] was more than 61800 nM.
For `CCCCC(=O)Oc1ccccc1-c1nc2cc(C)ccn2c1NC(C)(C)CC(C)(C)C`, in that order: 57 nM, 854 nM and more than 10000 nM.
The matching figures for `CCOC(=O)C1=C(C)NC2=C(C(=O)CCC2)C1c1ccc([N+](=O)[O-])cc1` (stereo not drawn): 570 nM, 902 nM and more than 100000 nM.
For `COC(=O)c1c(OCc2ccc(F)cc2)cc(=O)n2c1CCN(Cc1ccccc1)CC2`, in that order: 538 nM, 3940 nM and more than 100000 nM.
Turning to `Cc1cccc(NC(c2ccncc2)c2ccc3cccnc3c2O)n1` (stereo not drawn), the results for the EC50 in the data set with Plasmodium falciparum [1] and in the data set with Plasmodium falciparum [2] were 375 nM and 669 nM, respectively. Further, in data set [3], the CC50 is 69900 nM.
`Cc1cc(C)cc(Nc2cc(C)nc3nc(C)nn23)c1`: the results for the EC50 in the data set with Plasmodium falciparum [1] and in the data set with Plasmodium falciparum [2] were 536 nM and 594 nM, respectively. The CC50 in data set [3] is more than 100000 nM.
Regarding `COc1cc(OC)cc(C(=O)Oc2ccccc2-c2nc3cc(C)ccn3c2NC(C)(C)CC(C)(C)C)c1`, the half-maximal effective concentration (EC50) with Plasmodium falciparum [1] was determined as 54 nM; with Plasmodium falciparum [2], 946 nM. The same molecule came in with a CC50 in data set [3] of more than 10000 nM.
For `COc1ccc(OC)c(C2C3=C(CC(C)(C)CC3=O)N(c3ccc(Cl)c(Cl)c3)C3=C2C(=O)CC(C)(C)C3)c1`, in that order: 546 nM, 430 nM and more than 100000 nM.
The matching figures for `Cc1nc2ccccc2n1S(C)(=O)=O`: 54.3 nM, 59.6 nM and more than 10000 nM.
`CC(C)CNC(=O)c1cnc(NCCCN2CCCCC2C)nc1NC1CCCC1` (stereo not drawn): the EC50 worked out at 52.8 nM in the data set with Plasmodium falciparum [1] and 910 nM in the data set with Plasmodium falciparum [2]. This molecule yielded a CC50 in data set [3] of more than 10000 nM.
For `O=C(/C=C/c1cccnc1)C12CC3CC(CC(C3)C1)C2`, in that order: 52.8 nM, 102 nM and more than 10000 nM.
For `Cc1ccccc1CN1CCN(CC=Cc2ccccc2)CCC1=O`, in that order: 531 nM, 1430 nM and more than 100000 nM.
For `Cc1cc(N2CCN(Cc3ccc(F)cc3)CC2)n2c(nc3ccccc32)c1C#N`, in that order: 530 nM, 625 nM and more than 100000 nM.
Consider `CCN1CCN(Cc2cc(Cl)cc(Cl)c2O)CC1`, for which the EC50 in the data set on Plasmodium falciparum [1] was 529 nM; with Plasmodium falciparum [2], 3000 nM. This molecule also gave a CC50 in data set [3] of more than 100000 nM.
The matching figures for `Cc1nc(N2CCC(C)CC2)c2c(C)c(C(=O)Nc3ccc(C(F)(F)F)cc3)sc2n1`: 562 nM, more than 12500 nM and more than 100000 nM.
For the molecule `CCCN(CCC)S(=O)(=O)c1cc(Br)cc2c1N(C(C)=O)CC2`, the EC50 with Plasmodium falciparum [1] worked out at 561 nM; in the data set with Plasmodium falciparum [2], 1990 nM. In addition, the CC50 in data set [3] was more than 100000 nM.
As for `CCOc1ccc(CCNC(=O)c2cccs2)cc1OCC`, the EC50 turned out to be 560 nM in the data set on Plasmodium falciparum [1] and 890 nM in the data set on Plasmodium falciparum [2]. For the same molecule, the CC50 in data set [3] was more than 100000 nM.
The matching figures for `CCc1ccc(C2C(C(=O)Nc3ccccc3)=C(C)Nc3c(C(=O)Nc4ccc(C)cc4)cnn32)cc1` (stereo not drawn): 554 nM, 1500 nM and more than 100000 nM.
The matching figures for `Cc1cc(C)cc(NC2=C(N)C(=O)c3ccccc3C2=O)c1`: 551 nM, 969 nM and more than 100000 nM.
The matching figures for `CCOC(=O)c1nnn(-c2nonc2N)c1-c1ccc(OC)cc1`: 564 nM, 653 nM and more than 100000 nM.
As for `CCCNC1=C(N(C(C)=O)c2cccc(F)c2)C(=O)c2ccccc2C1=O`, the EC50 stood at 28.4 nM with Plasmodium falciparum [1] and 29 nM in the data set on Plasmodium falciparum [2]. In addition, in data set [3], the CC50 is 5390 nM.
For `COc1ccc(-c2c[n+](CC(=O)c3cccc(OC)c3)c3n2CCC3)cc1`, in that order: 530 nM, 954 nM and more than 100000 nM.
As for `CC(C)(C)c1nn(-c2ccc(Cl)cc2)c2[nH]c(=O)c(CNCc3ccccc3)cc12`, the EC50 with Plasmodium falciparum [1] is 539 nM; in the data set with Plasmodium falciparum [2], 731 nM. Besides, the CC50 in data set [3] is more than 100000 nM.
The matching figures for `CCOC(=O)C1CCN(C(c2cc3cc(OC)c(OC)cc3[nH]c2=O)c2nnnn2C(C)(C)C)CC1` (stereo not drawn): 567 nM, 889 nM and more than 100000 nM.
For `CCCCSCC(O)CN1CCCCC1` (stereo not drawn), in that order: 534 nM, 5280 nM and more than 100000 nM.
The matching figures for `CCN(CC)CCNc1ncnc2c1[nH]c1ccc(F)cc12`: 169 nM, 277 nM and 31500 nM.
Take `C=CC[n+]1c(C=C2C=CN(C)C=C2)sc2ccccc21`: the EC50 in the data set on Plasmodium falciparum [1] is 140 nM; with Plasmodium falciparum [2] it was 172 nM. Further, the CC50 in data set [3] is 24600 nM.
